Columns and labels:
[1] = test system: feral EAB males (Agrilus planipennis); assay: Behavioral field bioassay with dummy females (feral male contact and mating behaviour); assay type: in vivo
Protocol: Preparation of dummy females. A total of 78 EAB females that emerged from 10-15 Jul. 2008 were reared for the field bioassay. Female EAB were reared in the quarantine facilities, as described above, until the age of 14 days, when they were frozen. Prior to the field bioassay, females were removed from the freezer and thawed for 2-3 h. For 52 of the females, each female was individually rinsed in 1 ml of hexane for about 2 min. Females were then allowed to dry for a minimum of 30 min before being rinsed again. Females were rinsed a total of three times for 2 min each time and left to dry overnight after the final rinsing. All 78 females were then individually pinned through the right elytra at its base; the heads of the pins were then snipped off such that the end of the pin was only about 1 mm above the surface of the female's body and thus would not interfere with approaches by feral male EAB. Twenty-six of the rinsed females were then treated with 1 μl of racemic 9-methyl pentacosane (ca. 5 mg/ml; one female equivalent), in solution with hexane, and allowed to dry. This divided the 78 females into three treatment groups (unwashed, washed, and washed then treated). The treatment groups were indicated by pinning a small paper insect ‘point’ underneath the female that was not visible from above. The points were colored white (unwashed), yellow (washed) or blue (washed then treated). […] Females were kept at 3-4° C. in a fridge for 2 days until used in the bioassay and were transported to the field in a cooler.
Behavioral field bioassay. The field bioassay was conducted from 7-11 Jul. 2008 at a site about 1.8 km northeast of Port Lambton, ON (42° 40.16′ N, 82° 29.56′ W). […] Dummy females were pinned to foliage on epicormic shoots of infested ash trees, growing from the base of the tree up to about 1.5 m above the ground. Females were placed and removed from foliage by grasping the pin underneath the female with tweezers and were never touched directly to avoid cross-contamination. Trees were chosen based on the presence of both epicormic shoots and feral EAB males on the foliage. Dummy females were placed in a triangle shape in groups of three (one of each treatment) about 20-30 cm apart. All females were pinned on south-facing foliage so that they would be in direct sunlight. From nine to 21 females were set up at different times on different trees, based on the amount of foliage available.
Observations of dummy females began once all females were established on the foliage, and lasted for about 1 h per observation session with breaks of 5-10 min in between observation sessions. We recorded the time of arrival of each male observed to land on a female and then the time of departure for that same male to obtain its total time spent in contact with a given female. The locations of the various treatments were not recorded, so the observations on time spent in contact by males was collected by observers who were unaware of the treatment. The treatment group (unwashed, treated, washed) was then recorded by checking for the presence of the colored insect point under the female's abdomen after the male had flown away. […]
The amount of time individual males spent in contact, and the percentage of that time spent attempting to mate, with females of the three different treatments were analyzed by one-way ANOVA after logarithmic transformation of data to meet the assumptions of normality of data and equality of variance; means were compared using the Holm-Sidak test. […]

[2] = test system: brown Spruce Longhorn Beetle (BSLB); details: inventors' soon to be published research; cited from earlier work

| SMILES | number of wild males landing on females ([1]; hexane-washed freeze-killed females treated with 1 μl racemic 9-methyl pentacosane (ca. 5 mg/ml; one female equivalent), field, about 40 h of observation) | percentage of contact time spent attempting to mate ([1]; subset of feral males (n=7 observations), one figure printed for unwashed and 9-Me-C25-treated females together, washed females about 20%) | contact and copulatory activity after reapplication to hexane-rinsed females ([1]; synthetic 9-Me-C25 reapplied, field bioassays) | time males spent on treated females compared with washed females ([1]; treated (n=27 observations) vs hexane-washed females (n=43), t=3.817, P=0.00004) | time males spent on treated females compared with unwashed females ([1]; treated (n=27 observations) vs unwashed females (n=36), t=0.138, P=0.89) | activity as a contact sex pheromone [2] |
| --- | --- | --- | --- | --- | --- | --- |
| CCCCCCCCCCCCCCCCC(C)CCCCCCCC (racemic) [9-Me-C25, 9-methyl pentacosane] | 27 | 60%-70% | restored almost all contact and copulatory activity | significantly longer | slightly, but not significantly, less |  |
| CCCCCCCCCCCCCC[C@@H](C)CCCCCCCCCC (single isomer, unassigned) [11S-enantiomer] |  |  |  |  |  | demonstrated activity |

— patent publication US8404225B2, “Contact sex pheromone component of the Emerald Ash Borer Agrilus planipennis Fairmaire (Coleoptera: Buprestidae)” (National Research Council of Canada, priority 2008, dated 2013)
